Experimental data from ChEMBL document CHEMBL1201862, “PubChem BioAssay data set” (2004).
Counter-ions that a name gives are not always drawn. Activity calls are given as the source filed them.

What was measured:
[1] = molecular target: DNA dC->dU-editing enzyme APOBEC-3G (Homo sapiens, UniProt Q9HC16); assay: Dose Response confirmation of small molecule APOBEC3G DNA Deaminase Inhibitors via a fluorescence-based single-stranded DNA deaminase assay. [Related pubchem assays (depositor defined):AID493012, AID493028]; format: functional
Sequence of DNA dC->dU-editing enzyme APOBEC-3G (Q9HC16 whole entry): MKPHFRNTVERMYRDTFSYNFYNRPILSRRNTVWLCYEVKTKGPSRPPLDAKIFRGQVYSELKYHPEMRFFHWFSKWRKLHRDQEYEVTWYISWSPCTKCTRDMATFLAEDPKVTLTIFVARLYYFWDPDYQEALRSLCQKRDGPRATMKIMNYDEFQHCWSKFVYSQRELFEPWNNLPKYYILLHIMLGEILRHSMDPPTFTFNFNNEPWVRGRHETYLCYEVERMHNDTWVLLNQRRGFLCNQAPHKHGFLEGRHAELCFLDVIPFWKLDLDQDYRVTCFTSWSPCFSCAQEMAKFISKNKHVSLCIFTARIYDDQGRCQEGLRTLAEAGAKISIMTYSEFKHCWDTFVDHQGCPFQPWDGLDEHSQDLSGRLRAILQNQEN

[2] = molecular target: Eukaryotic translation initiation factor 4E (Mus musculus, UniProt P63073); assay: eIF4E–eIF4G protein interaction inhibitors, dose response, biochemical, TR-FRET (AID 855); format: functional;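 further: potency for disrupting eIF4E binding to eIF4GI seen as loss of FRET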
Sequence of Eukaryotic translation initiation factor 4E (P63073 whole entry): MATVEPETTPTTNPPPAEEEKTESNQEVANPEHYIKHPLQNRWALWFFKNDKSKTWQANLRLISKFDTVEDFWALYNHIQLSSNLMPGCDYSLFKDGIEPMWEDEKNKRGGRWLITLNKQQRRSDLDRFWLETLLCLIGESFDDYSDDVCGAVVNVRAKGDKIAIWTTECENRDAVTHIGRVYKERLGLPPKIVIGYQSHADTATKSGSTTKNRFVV

Mucolipin-3 = molecular target: T1, Mucolipin-3 (Homo sapiens, UniProt Q8TDD5); assay: Dose response cell-based high-throughput screening assay for agonists of the transient receptor potential channel ML3 (TRPML3). [Related pubchem assays: 1526, 1424, 1448 ]; format: functional
T1 sequence (Q8TDD5 whole entry): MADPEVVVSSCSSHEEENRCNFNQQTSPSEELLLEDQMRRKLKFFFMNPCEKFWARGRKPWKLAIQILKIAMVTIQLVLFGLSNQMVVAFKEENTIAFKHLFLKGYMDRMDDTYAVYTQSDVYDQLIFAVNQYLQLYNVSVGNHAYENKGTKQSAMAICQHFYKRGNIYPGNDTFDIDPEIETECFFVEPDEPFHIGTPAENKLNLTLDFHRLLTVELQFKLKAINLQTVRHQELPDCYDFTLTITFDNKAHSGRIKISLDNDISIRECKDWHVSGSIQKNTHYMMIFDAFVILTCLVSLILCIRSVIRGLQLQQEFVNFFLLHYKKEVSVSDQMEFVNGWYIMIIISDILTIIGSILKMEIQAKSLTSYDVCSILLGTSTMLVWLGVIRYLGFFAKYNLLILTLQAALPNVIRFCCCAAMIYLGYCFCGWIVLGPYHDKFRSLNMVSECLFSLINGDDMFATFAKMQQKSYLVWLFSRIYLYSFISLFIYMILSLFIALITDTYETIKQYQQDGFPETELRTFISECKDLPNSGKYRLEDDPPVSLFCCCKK

Ion channel NompC = Ion channel NompC (Danio rerio, UniProt Q7T1G6); assay: Fluorescence counterscreen assay for TRPML3 agonists: dose response cell-based high-throughput screening assay to identify agonists of the transient receptor potential channel N1 (TRPN1). [Related pubchem assays: 1526, 1424, 1448 ]; format: functional
Sequence of Ion channel NompC (Q7T1G6 whole entry): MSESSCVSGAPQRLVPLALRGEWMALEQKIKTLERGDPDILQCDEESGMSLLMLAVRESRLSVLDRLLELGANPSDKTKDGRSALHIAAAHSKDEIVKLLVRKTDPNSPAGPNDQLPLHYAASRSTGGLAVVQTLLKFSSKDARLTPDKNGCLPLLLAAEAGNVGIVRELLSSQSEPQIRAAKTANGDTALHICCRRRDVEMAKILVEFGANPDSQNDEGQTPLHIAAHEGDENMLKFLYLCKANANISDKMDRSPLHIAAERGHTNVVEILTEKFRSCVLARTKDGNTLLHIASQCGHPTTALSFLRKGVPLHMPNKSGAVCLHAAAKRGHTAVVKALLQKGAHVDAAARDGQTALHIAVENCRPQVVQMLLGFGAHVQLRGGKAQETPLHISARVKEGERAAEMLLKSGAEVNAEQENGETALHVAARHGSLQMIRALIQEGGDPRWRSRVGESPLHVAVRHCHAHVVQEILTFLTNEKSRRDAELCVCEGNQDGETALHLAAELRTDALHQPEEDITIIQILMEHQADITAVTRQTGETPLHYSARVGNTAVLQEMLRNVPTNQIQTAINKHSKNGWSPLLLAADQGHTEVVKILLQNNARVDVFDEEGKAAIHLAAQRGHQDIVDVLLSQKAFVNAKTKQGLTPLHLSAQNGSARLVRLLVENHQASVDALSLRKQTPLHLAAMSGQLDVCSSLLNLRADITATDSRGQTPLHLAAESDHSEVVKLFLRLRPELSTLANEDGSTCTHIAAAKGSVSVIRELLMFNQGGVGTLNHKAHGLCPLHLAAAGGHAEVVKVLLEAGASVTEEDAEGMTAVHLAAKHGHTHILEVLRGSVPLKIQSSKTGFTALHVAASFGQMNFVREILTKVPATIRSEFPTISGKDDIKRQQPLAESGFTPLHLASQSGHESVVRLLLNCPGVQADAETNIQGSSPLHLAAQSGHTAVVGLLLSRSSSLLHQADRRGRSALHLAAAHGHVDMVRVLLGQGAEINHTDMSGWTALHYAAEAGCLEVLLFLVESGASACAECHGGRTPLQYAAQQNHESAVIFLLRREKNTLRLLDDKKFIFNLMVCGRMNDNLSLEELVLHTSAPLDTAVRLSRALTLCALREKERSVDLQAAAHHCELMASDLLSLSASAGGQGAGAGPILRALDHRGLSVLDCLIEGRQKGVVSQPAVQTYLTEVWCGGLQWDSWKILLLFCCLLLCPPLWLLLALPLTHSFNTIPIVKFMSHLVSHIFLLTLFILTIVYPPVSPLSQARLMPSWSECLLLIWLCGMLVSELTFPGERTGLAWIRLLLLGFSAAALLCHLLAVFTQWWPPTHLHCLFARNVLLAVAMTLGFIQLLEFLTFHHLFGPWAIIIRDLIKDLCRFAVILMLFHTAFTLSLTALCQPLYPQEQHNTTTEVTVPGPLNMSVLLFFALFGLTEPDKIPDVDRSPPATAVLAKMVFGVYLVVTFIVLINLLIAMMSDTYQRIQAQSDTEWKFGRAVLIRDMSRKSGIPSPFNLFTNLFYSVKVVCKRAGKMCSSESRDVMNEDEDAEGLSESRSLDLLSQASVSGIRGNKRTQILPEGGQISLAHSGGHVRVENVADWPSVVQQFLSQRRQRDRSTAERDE

Streptokinase A = molecular target: T2, Streptokinase A (Streptococcus pyogenes serotype M1, UniProt P10520); assay: S. pyogenes streptokinase expression inhibitors, potency, dose response, plasminogen activation absorbance, OD405 (AID 1914); format: functional, Streptococcus pyogenes M1 GAS;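 further: secreted streptokinase activity via plasminogen activation per viability signal from cell pellet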
T2 sequence (P10520 whole entry): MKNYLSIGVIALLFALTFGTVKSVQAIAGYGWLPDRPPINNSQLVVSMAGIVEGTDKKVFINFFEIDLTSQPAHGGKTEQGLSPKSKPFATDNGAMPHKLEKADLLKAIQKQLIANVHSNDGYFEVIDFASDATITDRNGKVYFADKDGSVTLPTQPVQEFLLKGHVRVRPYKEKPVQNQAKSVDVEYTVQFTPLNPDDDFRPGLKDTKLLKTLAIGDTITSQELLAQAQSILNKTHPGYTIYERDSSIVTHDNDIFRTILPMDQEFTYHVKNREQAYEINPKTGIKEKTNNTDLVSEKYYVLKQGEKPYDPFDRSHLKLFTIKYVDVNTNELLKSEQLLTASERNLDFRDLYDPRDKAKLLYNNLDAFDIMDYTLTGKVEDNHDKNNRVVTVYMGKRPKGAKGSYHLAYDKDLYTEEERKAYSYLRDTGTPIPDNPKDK

Streptococcus = assay: Group A Streptococcus viability loss, dose response, counter-screen for streptokinase expression inhibitor project, luminescence, BacTiterGlo (AID 1915); format: functional, organism-based;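 further: potency for reduction of bacterial viability or growth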
[3] = Luminescence Cell-Based Dose Retest to Confirm Inhibitors of Cancer Stem Cells. [Related pubchem assays (depositor defined):AID2717, AID2721]; format: functional; details: Homo sapiens
[4] = system: Streptococcus sp. 'group A'; assay: growth inhibition of control SK(-) GAS strain, dose response, counter-screen for streptokinase expression inhibitor project, luminescence, kanamycin, BacTiterGlo, confirmation (AID 1900); format: functional, organism-based
[5] = cytotoxicity in HEK-293T cells, dose response, cytotoxicity control for BCR NF-kB inhibitor project, luminescence, B-cell screen hits (AID 489021); format: functional, cell-based;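 further: HEK-293T cells carrying an NF-kB luciferase reporter; cells exposed to compound for about 14 hours before viability readout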
Caspase-6 = molecular target: T3, Caspase-6 (Homo sapiens, UniProt P55212); assay: human caspase-6 inhibitors, dose response, biochemical, VEID-R110 fluorescence, cherry-pick (AID 720632)
T3 sequence (P55212 whole entry): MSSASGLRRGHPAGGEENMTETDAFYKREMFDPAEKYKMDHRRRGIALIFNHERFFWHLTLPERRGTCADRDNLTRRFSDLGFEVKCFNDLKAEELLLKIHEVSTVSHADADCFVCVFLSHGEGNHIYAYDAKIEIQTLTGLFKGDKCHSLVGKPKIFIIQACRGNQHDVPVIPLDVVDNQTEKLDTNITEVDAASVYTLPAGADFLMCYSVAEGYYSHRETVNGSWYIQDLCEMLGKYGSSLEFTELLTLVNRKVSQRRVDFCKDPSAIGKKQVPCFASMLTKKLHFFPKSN

[6] = molecular target: T4, Carboxy-terminal domain RNA polymerase II polypeptide A small phosphatase 1 (Homo sapiens, UniProt Q9GZU7); assay: inhibitors of CTDSP1, concentration-response testing, biochemical assay, absorbance-based, actives from ultra-high-throughput screening (AID 540297); format: functional
T4 sequence (Q9GZU7 whole entry): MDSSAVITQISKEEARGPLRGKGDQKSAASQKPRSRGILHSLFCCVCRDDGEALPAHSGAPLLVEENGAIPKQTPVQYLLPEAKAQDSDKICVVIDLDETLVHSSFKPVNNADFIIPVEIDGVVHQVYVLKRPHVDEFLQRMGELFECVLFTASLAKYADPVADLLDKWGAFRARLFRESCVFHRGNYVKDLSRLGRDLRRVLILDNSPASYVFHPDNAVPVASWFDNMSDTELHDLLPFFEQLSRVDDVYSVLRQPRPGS

[7] = molecular target: Induced myeloid leukemia cell differentiation protein Mcl-1 (Homo sapiens, UniProt Q07820); format: functional
Sequence of Induced myeloid leukemia cell differentiation protein Mcl-1 (Q07820 whole entry): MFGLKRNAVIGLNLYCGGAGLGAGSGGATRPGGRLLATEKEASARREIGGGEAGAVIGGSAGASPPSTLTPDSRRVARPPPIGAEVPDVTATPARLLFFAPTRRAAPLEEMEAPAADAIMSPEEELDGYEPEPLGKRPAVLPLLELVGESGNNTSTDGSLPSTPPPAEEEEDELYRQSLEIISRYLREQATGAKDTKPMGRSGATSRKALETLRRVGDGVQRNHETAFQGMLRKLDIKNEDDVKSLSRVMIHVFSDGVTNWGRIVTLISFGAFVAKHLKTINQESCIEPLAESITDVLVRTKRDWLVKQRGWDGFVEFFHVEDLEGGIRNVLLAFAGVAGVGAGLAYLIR

[8] = molecular target: T5, Short transient receptor potential channel 4 (Mus musculus, UniProt Q9QUQ5); assay: mouse TRPC4 channel activators, dose response, cell-based, HEK293 TRPC4/mu-opioid, Fluo-4 calcium (AID 434937); format: functional
T5 sequence (Q9QUQ5 whole entry): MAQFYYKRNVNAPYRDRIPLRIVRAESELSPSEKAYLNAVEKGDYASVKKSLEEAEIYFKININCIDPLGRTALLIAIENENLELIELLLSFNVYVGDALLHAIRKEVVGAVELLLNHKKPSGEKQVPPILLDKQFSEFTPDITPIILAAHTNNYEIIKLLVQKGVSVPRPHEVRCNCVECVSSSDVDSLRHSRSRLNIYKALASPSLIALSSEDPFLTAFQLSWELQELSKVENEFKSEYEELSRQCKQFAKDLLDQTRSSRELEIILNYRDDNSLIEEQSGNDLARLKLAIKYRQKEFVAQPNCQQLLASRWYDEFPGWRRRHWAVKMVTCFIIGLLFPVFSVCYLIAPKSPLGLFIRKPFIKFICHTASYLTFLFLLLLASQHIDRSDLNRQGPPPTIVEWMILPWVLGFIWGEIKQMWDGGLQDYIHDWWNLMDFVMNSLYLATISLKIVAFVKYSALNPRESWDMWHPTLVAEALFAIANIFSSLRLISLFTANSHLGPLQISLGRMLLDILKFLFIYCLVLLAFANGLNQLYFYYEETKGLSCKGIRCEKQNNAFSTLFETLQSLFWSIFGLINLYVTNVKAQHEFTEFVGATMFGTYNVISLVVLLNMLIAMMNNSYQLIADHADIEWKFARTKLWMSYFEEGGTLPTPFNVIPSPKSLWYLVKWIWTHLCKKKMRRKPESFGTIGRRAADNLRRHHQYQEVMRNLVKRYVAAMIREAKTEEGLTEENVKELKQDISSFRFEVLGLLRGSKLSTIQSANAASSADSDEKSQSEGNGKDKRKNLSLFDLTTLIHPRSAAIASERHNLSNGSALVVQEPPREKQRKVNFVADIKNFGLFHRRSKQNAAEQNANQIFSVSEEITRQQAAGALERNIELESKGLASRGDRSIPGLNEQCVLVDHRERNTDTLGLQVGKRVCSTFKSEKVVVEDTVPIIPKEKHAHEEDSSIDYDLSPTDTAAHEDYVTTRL

[9] = A cytotoxicity screen of small molecule inhibitors of the PhoP region in Salmonella typhi identified in the primary screen. [Related pubchem assays: 1850, 1864, 1985 ]; format: functional
[10] = molecular target: FAD-linked sulfhydryl oxidase ALR (Homo sapiens, UniProt P55789); assay: inhibitors of human ALR sulfhydryl oxidase, dose response, biochemical, H2O2 detection, luminescence, cherry-pick (AID 493248)
Sequence of FAD-linked sulfhydryl oxidase ALR (P55789 whole entry): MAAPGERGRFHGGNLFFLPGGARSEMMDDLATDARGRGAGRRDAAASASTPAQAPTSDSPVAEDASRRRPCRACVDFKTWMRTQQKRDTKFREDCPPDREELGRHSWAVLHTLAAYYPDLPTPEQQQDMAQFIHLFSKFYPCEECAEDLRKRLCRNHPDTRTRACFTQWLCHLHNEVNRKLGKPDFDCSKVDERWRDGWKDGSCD

Large T antigen = Large T antigen (Simian virus 40, UniProt P03070); format: functional, Betapolyomavirus macacae;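 further: Confirmatory-stage PubChem screen for compounds that inhibit SV40 T antigen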
Sequence of Large T antigen (P03070 whole entry): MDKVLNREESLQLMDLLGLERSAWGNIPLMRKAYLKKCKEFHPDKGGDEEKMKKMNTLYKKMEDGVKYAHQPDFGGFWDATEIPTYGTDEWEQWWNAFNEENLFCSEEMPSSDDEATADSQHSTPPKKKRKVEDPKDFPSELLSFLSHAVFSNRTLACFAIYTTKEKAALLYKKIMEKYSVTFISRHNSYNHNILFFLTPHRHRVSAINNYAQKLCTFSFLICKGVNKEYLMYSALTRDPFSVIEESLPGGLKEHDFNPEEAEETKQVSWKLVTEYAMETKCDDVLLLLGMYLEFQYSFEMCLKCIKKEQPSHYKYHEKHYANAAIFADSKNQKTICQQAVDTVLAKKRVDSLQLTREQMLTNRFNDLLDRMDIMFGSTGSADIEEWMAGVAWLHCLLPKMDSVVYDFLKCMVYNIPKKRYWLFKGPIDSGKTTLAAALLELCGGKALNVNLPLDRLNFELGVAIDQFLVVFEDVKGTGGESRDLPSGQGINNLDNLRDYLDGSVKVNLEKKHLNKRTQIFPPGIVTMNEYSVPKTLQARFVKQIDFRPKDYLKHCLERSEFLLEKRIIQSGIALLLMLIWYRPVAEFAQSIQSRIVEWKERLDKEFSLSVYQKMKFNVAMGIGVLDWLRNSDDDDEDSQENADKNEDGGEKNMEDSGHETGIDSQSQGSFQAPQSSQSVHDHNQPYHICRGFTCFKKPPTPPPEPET

Cytochrome P450 2D6 = Cytochrome P450 2D6 (Homo sapiens, UniProt P10635);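 further: CYP2D6 member of a cytochrome P450 panel assay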
Sequence of Cytochrome P450 2D6 (P10635 whole entry): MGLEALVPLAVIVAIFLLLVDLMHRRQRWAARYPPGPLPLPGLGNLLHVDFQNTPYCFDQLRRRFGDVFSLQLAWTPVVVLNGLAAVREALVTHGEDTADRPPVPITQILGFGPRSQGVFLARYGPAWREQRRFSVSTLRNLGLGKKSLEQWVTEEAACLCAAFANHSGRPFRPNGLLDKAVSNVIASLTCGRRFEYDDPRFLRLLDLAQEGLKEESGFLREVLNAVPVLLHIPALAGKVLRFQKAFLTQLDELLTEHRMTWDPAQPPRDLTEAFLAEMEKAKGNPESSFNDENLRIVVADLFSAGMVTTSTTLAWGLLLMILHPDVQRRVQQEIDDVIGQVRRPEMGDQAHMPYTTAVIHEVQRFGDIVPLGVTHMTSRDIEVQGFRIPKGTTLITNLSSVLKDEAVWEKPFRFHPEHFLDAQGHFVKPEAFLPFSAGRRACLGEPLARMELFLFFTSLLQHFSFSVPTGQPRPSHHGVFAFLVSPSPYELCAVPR

[11] = molecular target: T6, Heat shock factor protein 1 (Mus musculus, UniProt P38532); assay: inhibition of MG132-induced HSE-luciferase signal, confirmation, cell-based, NIH3T3, luminescence, dose retest (AID 2382); format: functional;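 further: NIH3T3 fibroblasts with HSF1-driven luciferase reporter stressed by proteasome inhibitor MG132; luminescence from HSF1-driven luciferase expression after 8 hours of MG132 stress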
T6 sequence (P38532 whole entry): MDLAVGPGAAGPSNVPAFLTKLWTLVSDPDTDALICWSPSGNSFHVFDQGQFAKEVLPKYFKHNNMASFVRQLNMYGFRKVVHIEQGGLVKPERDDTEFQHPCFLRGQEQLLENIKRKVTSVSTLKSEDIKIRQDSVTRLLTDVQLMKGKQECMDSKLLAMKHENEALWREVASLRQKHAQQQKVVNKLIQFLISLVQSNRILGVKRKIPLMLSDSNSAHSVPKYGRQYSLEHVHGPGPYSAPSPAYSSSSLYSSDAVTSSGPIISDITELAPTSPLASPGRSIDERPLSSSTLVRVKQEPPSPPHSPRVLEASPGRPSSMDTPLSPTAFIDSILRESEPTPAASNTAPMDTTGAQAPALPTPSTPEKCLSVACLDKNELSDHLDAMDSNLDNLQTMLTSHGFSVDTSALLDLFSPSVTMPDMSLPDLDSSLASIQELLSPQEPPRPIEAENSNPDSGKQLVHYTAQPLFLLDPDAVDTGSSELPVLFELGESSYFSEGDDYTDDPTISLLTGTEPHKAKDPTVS

SMILES: Oc1ccc(C(=S)N2CCN(c3cccc(Cl)c3)CC2)cc1
- IC50 [1]: 81 µM (active)

SMILES: Cc1ccc(S(=O)(=O)NCC(=O)N(CC(=O)NCC2CCCO2)C2CCCC2)cc1 (configuration not stated)
- IC50 [2]: > 64 µM (inactive)

SMILES: CN(C1CCCCC1)S(=O)(=O)c1cccc(C#N)c1
- EC50 (Mucolipin-3): 3.58 µM (active)
- EC50 (Ion channel NompC): > 29.9 µM (not active)

SMILES: CCOC(=O)c1sc(NC(=O)c2cc(-c3ccccc3C)nc3ccccc23)c(C#N)c1C
- EC50 (Streptokinase A): > 150 µM (not active)
- EC50 (Streptococcus): 36.2 µM (active)
- AC50 [3]: 0.693 µM (active)
- EC50 [4]: 1.04 µM (active)
- IC50 [5]: 62.1 µM (inactive)

SMILES: O=C(CSc1ccsc1[N+](=O)[O-])Nc1cccc(F)c1
- AC50 (Caspase-6): 16.3 µM (active)
- IC50 [6]: 3.65 µM (active)
- IC50 [7]: 2.92 µM (active)
- IC50 [2]: 50 µM (inactive)

SMILES: O=C1c2ccccc2CCCC12N=NCC2c1cccc2ccccc12 (configuration not stated)
- EC50 (Mucolipin-3): 3.31 µM (active)
- EC50 (Ion channel NompC): > 29.9 µM (not active)

SMILES: COC(=O)C1=CCCN(C)C1 [ARECOLINE HYDROBROMIDE]
- EC50 (Mucolipin-3): 2.26 µM (active)
- EC50 [8]: 6.68 µM (active)
- EC50 (Ion channel NompC): > 29.9 µM (not active)

SMILES: Cc1ccc(CCNC(=O)c2cc(S(=O)(=O)N3CCCCC3)c[nH]2)cc1
- EC50 [9]: > 50 µM (active)

SMILES: Sc1nnc(Nc2ccccc2)s1
- IC50 [1]: 0.892 µM (active)
- AC50 [10]: 1.91 µM (active)

SMILES: CC(C)CCn1c(=O)c2ccccc2n2c(=S)[nH]nc12
- IC50 [1]: 1.19 µM (active)
- IC50 (Large T antigen): 14.7 µM (active)

SMILES: O=C(Nc1cccc([N+](=O)[O-])c1)Nc1cccs1
- EC50 [9]: > 50 µM (active)

SMILES: CCOC(=O)CSc1nnc(CSc2nc(C)cc(C)n2)n1Cc1ccco1
- IC50 [2]: > 64 µM (inactive)

SMILES: COc1ccc(/C=N/n2c(S)nnc2-c2cccs2)cc1
- AC50 (Cytochrome P450 2D6): 3.55 µM (inconclusive)
- IC50 [2]: > 64 µM (inactive)
- EC50 (Streptokinase A): > 150 µM (not active)
- EC50 (Streptococcus): 15.6 µM (active)
- EC50 [4]: 7.17 µM (active)

SMILES: COc1ccc(-n2ncc3c(N4CCC(C(N)=O)CC4)ncnc32)cc1
- IC50 [5]: > 80 µM (inactive)

SMILES: C=C(C)Cn1c(C)cc(C)c(S(=O)(=O)c2ccccc2C)c1=O
- EC50 (Mucolipin-3): 5.9 µM (active)
- EC50 (Ion channel NompC): > 29.9 µM (not active)

SMILES: COc1ccc(-c2c/c(=N\CC(=O)O)c3ccccc3o2)cc1.[O-][Cl+3]([O-])([O-])O
- EC50 [9]: > 50 µM (active)

SMILES: CCOC(=O)C(CC)Sc1ccc2nnc(-c3cccnc3)n2n1 (configuration not stated)
- EC50 [11]: > 195 µM (not active)
- EC50 [9]: > 50 µM (active)

SMILES: Cn1nc(-c2ccc(N3CCOCC3)c(NS(=O)(=O)c3ccccc3)c2)c2ccccc2c1=O
- IC50 [5]: > 80 µM (inactive)
